From publication PMC12123366, “Effect of urea and squaramide IMPDH inhibitors on C. parvum: in vitro trial design impacts the assessment of drug efficacy” (International Journal for Parasitology: Drugs and Drug …, 2025)
Where two headings read alike, the source gives them in different places.

How the values were obtained:
[1] = test system: C. parvum; test: Inhibition of C. parvum replication in infected HCT-8 cells, parasite quantification by qPCR; format: cell-based, Cryptosporidium parvum (Iowa strain) in human HCT-8 cells; conditions: for IC50 / inhibition at 10 µM: Cryptosporidium parvum, HCT-8; for inhibition at 10 µM: added at start of infection (T0), 48 hpi, mean ± SD (n = 3 wells), read-out: inhibition rate of C. parvum replication; for inhibition at 10 µM / anti-cryptosporidial activity (in words): 10 μM; for anti-cryptosporidial activity (in words): added at T0, 48 hpi
Method: (§1) HCT-8 cell lines (Human ileocecal adenocarcinoma) were purchased from The European Collection of Authenticated Cell Cultures (ECACC) under catalogue number No 90032006) and maintained with regular subculturing in a growth medium consisting in a RPMI 1640 medium supplemented with 1 mM sodium pyruvate, 2 mM l-glutamine, 10 % (vol/vol) of heat-inactivated fetal calf serum, 100 U/mL of penicillin and 100 μg/mL of streptomycin. Cells were grown in an incubator at 37 °C with 5 % (vol/vol) CO2 until monolayers reached 80–90 % confluency. Cells were cultivated in 96-well format plate for molecular analysis and in Lab-Tek™ Chamber Slides for microscopic analysis. 50,000 cells were seeded and incubated during 24 h (until confluency) before infection.
(§2) C. parvum oocysts of “Iowa” strain was purchased from Waterborne Inc. and stored in PBS at 4 °C. A ratio of one oocyst per cell was used to infect HCT-8 cell. Oocysts suspension was incubated with 10 % of a solution (vol/vol) containing 0.5 % sodium hypochlorite for 10 min at 4 °C. After a washing step by centrifugation at 1800g for 15 min at 4 °C, oocysts were incubated in acidified water (pH 2.4) containing 0.025 % (wt/vol) of trypsin, at 37 °C for 20 min, to trigger excystation (infectivity assay developed by [Keegan et al., 2003]). After a third centrifugation step at 1800 g for 10 min, oocysts were suspended in a maintenance medium. The maintenance medium consisted of RPMI 1640 medium with 2 mM l-glutamine, 5 mM glucose, 0.5 μM folic acid, 7 μM 4-amino-benzoic acid, 0.1 μM calcium pantothenate, 50 nM ascorbic acid, 2 % (vol/vol) heat inactivated fetal calf serum and 100 U/mL of streptomycin/penicillin. Before oocyst inoculation, the growth medium was switched with maintenance medium. Triggered oocysts were finally added on monolayers and incubated during 48 h at 37 °C in a 5 % (vol/vol) CO2 atmosphere.
(§3) The compounds (2 mg/mL in DMSO) were diluted to 500 μM and serially diluted in maintenance medium. The cytotoxicity of the compounds was assessed using the CytoTox 96® Non-Radioactive Cytotoxicity Assay (Promega, G1790) in accordance with the manufacturer's protocol.
The COWP gene (GenBank no. AF248743) was amplified by qPCR following the previously described protocol ([Guy et al., 2003]), and the parasitic concentration was determined using the standard range of C. parvum oocyst concentrations. Briefly, serial dilutions from a pure C. parvum oocyst suspension were made starting from a stock solution of 5 × 10^7 oocysts (4 × 10^5 – 2 × 10^5 – 1 × 10^5 – […]–2.5 × 10^3–1.25 × 10^3 oocysts) and the standard curve for quantifying parasites was created to obtain a correlation between Cq values and the Log of concentration.
At the end of the experiment, supernatants from the C. parvum-infected cell cultures were collected. The cell layers were then washed (1x PBS), detached using trypsin (0.25 %), and centrifuged (10,000×g, 10 min). The resulting cell pellet was re-suspended in 150–200 μL of sterile 1x PBS and stored at −20 °C for later DNA extraction. DNA extraction of C. parvum was performed using the Purelink™ Microbiome Purification Kit (Invitrogen™) following the manufacturer's protocol “Transport Media and Microbial Culture Samples” ([Invitrogen, 2015]).
FRePCR reactions were formulated to a volume of 25 μL and comprised of 1.25 μL of primers (10 μM), 0.05 μL probe (100 μM), 12.5 μL Master Mix 2X, LightCycler 480 Probes Master (ref. 04707494001, Roche), 4.95 μL H2O nuclease-free and 5 μL of DNA template. Quantitative PCR was run on a CFX96 real time PCR system (BioRad) with an initial step of activation (10 min 95 °C) following by 40 cycles with cycling conditions as follows: 95 °C for 10 s, 60 °C for 1 min. BioRad CFX manager software was used to analyse the data. Samples were considered negative if Cq ≥ 40.
A common way of defining a 50 % response is to use a mathematical model like the 4-parameter logistic model (4 PL) ([Sebaugh, 2011]). […]

[2] = CytoTox 96 Non-Radioactive Cytotoxicity Assay; format: cell-based, Human; conditions: human; HCT-8 cells, 10 µM
Method: as §1, §3
(§4) An initial screening experiment was conducted on the full library to evaluate the cytotoxicity effects on HCT-8 cells. Nitrophenylurea 12 was identified as being cytotoxic so was not progressed further (See Supporting Information). In total, 21 candidates were assessed for their ability to inhibit C. parvum replication at a concentration of 10 μM. Each compound was added at the start of the infection of HCT-8 cells (T0) and remained in the culture for 48 h post infection (hpi). Parasitic quantification was then performed using a molecular method (qPCR). Of the 21 compounds tested, nine were effective inhibitors, reducing parasite proliferation by 80 % or more (Fig. 6). A clear trend emerged with all of the benzyl-substituted ureas 6–10 displaying poor inhibitory activity, regardless of the attached heteroaryl substituent. […] Two exceptions to this were imidazole-containing analogues 18 and 19. […] Among the squaramide series, the results were highly dependent on the nature of the substituent, ranging from high (e.g. ketone 29, furan 32), medium (e.g. 3-pyrazole 30) to low (e.g. 4-pyrazole 31) anti-cryptosporidial activity.

[3] = test system: C. parvum; test: Quantification of C. parvum development in HCT-8 cells by immunofluorescence microscopy; format: cell-based, Cryptosporidium parvum (Iowa strain) in human HCT-8 cells; conditions: for effect on distribution of parasite area: 7.5 μM or 15 μM, added at 30 hpi until 48 hpi; for reduction in parasite quantification: 7.5 μM, added at 30 hpi, until 48 hpi, fluorescence microscopy
Method: as §1, §2
After aspiration of the supernatant from the Nunc™ Lab-Tek™ Chamber slide wells, cells were rinsed with PBS 1X. A fixation step was then performed using methanol during 8 min at 4 °C. Cryptosporidium developmental forms were labelled with a polyclonal IgG antibodies reaction kit tagged with Cy3 (Sporo-Glo™, Waterborne Inc.) and oocysts were labelled with FL-Crypt-a-Glo™, a fluorescein-labelled mouse monoclonal antibody made to oocyst outer wall antigenic sites (epitopes) of C. parvum. Antibodies were 1/20th diluted and incubated on cells for 1 h at room temperature. DNA was labelled with Hoechst for 5 min at room temperature. Slides were then coverslipped with a no fading mounting medium (Waterborne Inc.) and observed with a Leica DMi8 microscope. Each dilution was performed in triplicate and, for each well, ten images were taken at 400× magnification. Parasite quantification was carried out automatically using the StarDist neural network, which was specifically trained to detect and quantify C. parvum parasites.
To confirm our initial findings, we employed an alternative method using immunofluorescence microscopy to quantify C. parvum development in the presence of inhibitors (Fig. S1). […] The results corroborated our initial screening data, confirming the high efficacy of all tested chloronitrophenyl urea analogues, except for imidazole derivatives 18 and 19.
To test this hypothesis, increasing concentrations of squaramide 32 (i.e. 0, 2, 4 and 8 μM) were applied at different infection times: at 0 hpi (hours post infection), to assess the impact on parasite invasion; at 4 hpi, to examine the effect on the early stages of intracellular development; and at 30 hpi, to evaluate the influence on late stage intracellular development. The microscopic images in Fig. 7 illustrate the effect of 32 when applied at the onset of infection and at 30 hpi. Using fluorescent antibodies, the intracellular development of C. parvum is highlighted by green fluorescence, which allows for quantification of the number of parasites per image.

[4] = test system: HCT-8 cells; test: CytoTox 96 Non-Radioactive Cytotoxicity Assay; format: cell-based, Human; conditions: 10 µM
Method: as §1, §3, §4

[5] = compounds at 0, 3, 6 and 9 μM added at t0 and left until 48 hpi, qPCR, read-out: IC50

| SMILES | IC50 [1, 5] | inhibition at 10 µM ([1]; qPCR) | viability at 10 µM [2] | other results |
| --- | --- | --- | --- | --- |
| NC[C@@H]1O[C@H](O[C@H]2[C@@H](O)[C@H](O[C@@H]3[C@@H](O)[C@H](N)C[C@H](N)[C@H]3O[C@H]3O[C@H](CO)[C@@H](O)[C@H](O)[C@H]3N)O[C@@H]2CO)[C@H](N)[C@@H](O)[C@@H]1O [Paromomycin, reference compound] |  |  |  | IC50 ([1]; previous experimentation based on qPCR, standard Cryptosporidium inhibitor in in vitro assays, read-out: mean IC50): 511 µM |
| CC(C)(NC(=O)NCc1ccccc1)c1cccc(-c2cn[nH]c2)c1 [Compound 7] |  |  | 96.7% |  |
| CC(C)(NC(=O)Nc1ccc(Cl)c([N+](=O)[O-])c1)c1cccc(-c2cccs2)c1 [Compound 22] | 3.77 µM | 86.6 ± 2.6% | 98.5% |  |
| CC(=O)c1cccc(C(C)(C)Nc2c(Nc3ccc(Cl)c([N+](=O)[O-])c3)c(=O)c2=O)c1 [Compound 29, 3-((2-(3-acetylphenyl)propan-2-yl)amino)-4-((4-chloro-3-nitrophenyl)amino)cyclobut-3-ene-1,2-dione] | 3.59 µM | 87.7 ± 1.7% | 97.2% | anti-cryptosporidial activity (in words) ([1]; qPCR): high |
| CC(C)(NC(=O)Nc1ccc(Cl)c([N+](=O)[O-])c1)c1cccc(-c2cccnc2F)c1 [Compound 24] | 3.64 µM | 83.4 ± 1.5% | 96.8% | effect on distribution of parasite area [3]: dose-dependent effect; reduction in parasite quantification [3]: 10.5% |
| CC(C)(NC(=O)NCc1ccccc1)c1cccc(-c2ccccc2)c1 [Compound 10] |  |  | 97.4% |  |
| CC(C)(Nc1c(Nc2ccc(Cl)c([N+](=O)[O-])c2)c(=O)c1=O)c1cccc(-c2cc[nH]n2)c1 [Compound 30, 3-((2-(3-(1H-Pyrazol-3-yl)phenyl)propan-2-yl)amino)-4-((4-chloro-3-nitrophenyl)amino)cyclobut-3-ene-1,2-dione] |  |  | 98.2% | anti-cryptosporidial activity (in words) ([1]; qPCR): medium |
| CC(C)(NC(=O)NCc1ccccc1)c1cccc(-c2cccs2)c1 [Compound 9] |  |  | 95.4% |  |
| CC(C)(NC(=O)NCc1ccccc1)c1cccc(-c2cc[nH]n2)c1 [Compound 6] |  |  | 97% |  |
| CC(C)(NC(=O)Nc1ccc(Cl)c([N+](=O)[O-])c1)c1cccc(-c2c[nH]cn2)c1 [Compound 19] |  | ≤ 50% | 97.4% |  |
| CC(C)(NC(=O)Nc1ccc(Cl)c([N+](=O)[O-])c1)c1cccc(-c2nccs2)c1 [Compound 20] | 4.51 µM | 85.7 ± 2.2% | 98.4% |  |
| CC(C)(NC(=O)Nc1ccc(Cl)c([N+](=O)[O-])c1)c1cccc(-c2cn(C(c3ccccc3)(c3ccccc3)c3ccccc3)cn2)c1 [Compound 18] |  | ≤ 50% | 97.3% |  |
| CC(C)(Nc1c(Nc2ccc(Cl)c([N+](=O)[O-])c2)c(=O)c1=O)c1cccc(-c2cn[nH]c2)c1 [Compound 31, (3-((2-(3-(1H-Pyrazol-4-yl)phenyl)propan-2-yl)amino)-2-((4-chloro-3-nitrophenyl)amino)-4-oxocyclobut-2-en-1-ylidene)oxonium] |  |  |  | anti-cryptosporidial activity (in words) ([1]; qPCR): low; Viability [4]: 96.97% |
| CC(C)(NC(=O)NCc1ccccc1)c1cccc(-c2ccco2)c1 [Compound 8] |  |  | 95.9% |  |

Further lines, with some results ahead:

| IC50 [1, 5] | SMILES | inhibition at 10 µM ([1]; qPCR) | viability at 10 µM [2] | other results |
| --- | --- | --- | --- | --- |
| 5.32 µM | CC(C)(NC(=O)Nc1ccc(Cl)c([N+](=O)[O-])c1)c1cccc(-c2cn[nH]c2)c1 [Compound 16] | 64.3 ± 3.9% | 96.4% |  |
| 6.19 µM | CC(C)(NC(=O)Nc1ccc(Cl)c([N+](=O)[O-])c1)c1cccc(-c2cc[nH]n2)c1 [Compound 14] | 85.1 ± 3.8% | 97.6% |  |
| 3.23 µM | CCOc1ncccc1-c1cccc(C(C)(C)NC(=O)Nc2ccc(Cl)c([N+](=O)[O-])c2)c1 [Compound 23] | 88 ± 3.5% | 94.1% | effect on distribution of parasite area [3]: successfully inhibits larger parasites; reduction in parasite quantification [3]: 32% |
| 5.98 µM | CCOC(=O)n1cc(-c2cccc(C(C)(C)NC(=O)Nc3ccc(Cl)c([N+](=O)[O-])c3)c2)cn1 [Compound 15] | 71.7 ± 1.5% | 97.5% |  |
| 4.69 µM | CC(C)(NC(=O)Nc1ccc(Cl)c([N+](=O)[O-])c1)c1cccc(-c2nccn2Cc2ccccc2)c1 [Compound 17] | 88.2 ± 1.1% | 97.3% |  |
| 6.19 µM | CC(C)(NC(=O)Nc1ccc(Cl)c([N+](=O)[O-])c1)c1cccc(-c2ccco2)c1 [Compound 21] | 64 ± 1% | 98.3% |  |
| 5.44 µM | CCOC(=O)n1ccc(-c2cccc(C(C)(C)NC(=O)Nc3ccc(Cl)c([N+](=O)[O-])c3)c2)n1 [Compound 13] | 87.5 ± 6.4% | 97.2% |  |
